In ChEMBL document CHEMBL1127153, “Synthesis and anti-arthritic activity of a series of 1-aryl-3-dimethylamino-1,4-dihydroisoquinolines” (1993):

Assays:
Assay type in all cases: functional
Rattus norvegicus [1] = assay: The compound was examined for cell accumulation in the rat by Arthus reaction after peroral administration at 50 mg/Kg, activity expressed as percent inhibition.; conditions: po
Rattus norvegicus [2] = assay: Antiarthritic activity against rat adjuvant model after peroral administration of 25 mg/Kg of compound, activity expressed as %maximum inhibitory effect on injected paw depth
Rattus norvegicus [3] = assay: The compound was examined for cell accumulation in the rat by Arthus reaction after peroral administration at 12.5mg/Kg, activity expressed as percent inhibition.; conditions: po
Rattus norvegicus [4] = assay: The compound was examined for cell accumulation in the rat by Arthus reaction after peroral administration at 25 mg/Kg, activity expressed as percent inhibition.; conditions: po
Rattus norvegicus [5] = assay: The compound was examined for cell accumulation in the rat by pleural exudate model after peroral administration at 12 mg/Kg, activity expressed as percent inhibition.; conditions: po
Rattus norvegicus [6] = assay: The compound was examined for cell accumulation in the rat by polyvinyl sponge model after peroral administration at 25 mg/Kg, activity expressed as percent inhibition.; conditions: po
Rattus norvegicus [7] = assay: Antiarthritic activity against rat adjuvant model after peroral administration of 25 mg/Kg of compound, activity expressed as %maximum inhibitory effect on arthritis score.
Rattus norvegicus [8] = assay: The compound was examined for cell accumulation in the rat by polyvinyl sponge model after peroral administration at 10 mg/Kg, activity expressed as percent inhibition.; conditions: po
Rattus norvegicus [9] = assay: Antiarthritic activity against rat adjuvant model after peroral administration of 12.5 mg/Kg of compound, activity expressed as %maximum inhibitory effect on arthritis score.
Rattus norvegicus [10] = assay: Antiarthritic activity against rat adjuvant model after peroral administration of 12.5 mg/Kg of compound, activity expressed as %maximum inhibitory effect on injected paw depth
Rattus norvegicus [11] = assay: The compound was examined for cell accumulation in the rat by pleural exudate model after peroral administration at 6 mg/Kg, activity expressed as percent inhibition.; conditions: po
Rattus norvegicus [12] = assay: The compound was examined for cell accumulation in the rat by pleural exudate model after peroral administration at 12.5 mg/Kg, activity expressed as percent inhibition.; conditions: po
Rattus norvegicus [13] = assay: Antiarthritic activity against rat adjuvant model after peroral administration of 12.5 mg/Kg of compound: activity expressed as %maximum inhibitory effect on arthritis score.
Rattus norvegicus [14] = assay: Antiarthritic activity against rat adjuvant model after peroral administration of 25 mg/Kg of compound: activity expressed as %maximum inhibitory effect on arthritis score.
Rattus norvegicus [15] = assay: The compound was examined for cell accumulation in the rat by pleural exudate model after peroral administration at 25 mg/Kg, activity expressed as percent inhibition.; conditions: po
Rattus norvegicus [16] = assay: The compound was examined for cell accumulation in the rat by pleural exudate model after oral administration at 25 mg/Kg, activity expressed as percent inhibition.
Rattus norvegicus [17] = assay: The compound was examined for cell accumulation in the rat by polyvinyl sponge model after peroral administration at 12.5 mg/Kg, activity expressed as percent inhibition.; conditions: po
Rattus norvegicus [18] = assay: Antiarthritic activity against rat adjuvant model after peroral administration of 5 mg/Kg of compound, activity expressed as %maximum inhibitory effect on arthritis score.
Rattus norvegicus [19] = assay: Antiarthritic activity against rat adjuvant model after peroral administration of 5 mg/Kg of compound, activity expressed as %maximum inhibitory effect on injected paw depth
Rattus norvegicus [20] = assay: Antiarthritic activity against rat adjuvant model after peroral administration of 10 mg/Kg of compound, activity expressed as %maximum inhibitory effect on arthritis score.
Rattus norvegicus [21] = assay: The compound was examined for cell accumulation in the rat by polyvinyl sponge model after peroral administration at 5 mg/Kg, activity expressed as percent inhibition.; conditions: po
Rattus norvegicus [22] = assay: Antiarthritic activity against rat adjuvant model after peroral administration of 10 mg/Kg of compound, activity expressed as %maximum inhibitory effect on injected paw depth
Rattus norvegicus [23] = assay: The compound was examined for cell accumulation in the rat by Arthus reaction after peroral administration at 6.25 mg/Kg, activity expressed as percent inhibition.; conditions: po
Rattus norvegicus [24] = assay: The compound was examined for cell accumulation in the rat by pleural exudate model after peroral administration at 3 mg/Kg, activity expressed as percent inhibition.; conditions: po
Rattus norvegicus [25] = assay: The compound was examined for cell accumulation in the rat by Arthus reaction after peroral administration at 12.5 mg/Kg, activity expressed as percent inhibition.; conditions: po
Rattus norvegicus [26] = assay: Antiarthritic activity against rat adjuvant model after peroral administration of 6 mg/Kg of compound, activity expressed as %maximum inhibitory effect on arthritis score.
Rattus norvegicus [27] = assay: Antiarthritic activity against rat adjuvant model after peroral administration of 6 mg/kg of compound, activity expressed as %maximum inhibitory effect on injected paw depth; conditions: route oral
Rattus norvegicus [28] = assay: Antiarthritic activity against rat adjuvant model after peroral administration of 50 mg/Kg of compound, activity expressed as %maximum inhibitory effect on injected paw depth
Rattus norvegicus [29] = assay: Antiarthritic activity against rat adjuvant model after intravenous administration of 50 mg/Kg of compound, activity expressed as %maximum inhibitory effect on arthritis score.
Rattus norvegicus [30] = assay: Antiarthritic activity against rat adjuvant model after intravenous administration of 25 mg/Kg of compound, activity expressed as %maximum inhibitory effect on arthritis score.
Rattus norvegicus [31] = assay: Antiarthritic activity against rat adjuvant model after intravenous administration of 25 mg/Kg of compound, activity expressed as %maximum inhibitory effect on injected paw depth

CN(C)C1=NC(c2ccccc2F)c2ccccc2C1.Cl (stereo not drawn)
inhibition in vivo at 50 mg/kg (Rattus norvegicus [1]): 55%
Max inhibitory effect (Rattus norvegicus [2]): 13%
inhibition in vivo at 12.5 mg/kg (Rattus norvegicus [3]): 28%
inhibition in vivo at 25 mg/kg (Rattus norvegicus [4]): 44%
inhibition in vivo at 12 mg/kg (Rattus norvegicus [5]): 33%
inhibition in vivo at 25 mg/kg (Rattus norvegicus [6]): 24%
Max inhibitory effect (Rattus norvegicus [7]): 37%
inhibition in vivo at 10 mg/kg (Rattus norvegicus [8]): 12%

Cl.Clc1ccc(C2N=C(N3CCOCC3)Cc3ccccc32)cc1 (stereo not drawn)
Max inhibitory effect (Rattus norvegicus [2]): 7%
Max inhibitory effect (Rattus norvegicus [7]): 5%

Cl.NC1=NC(c2ccc(Cl)cc2)c2ccccc2C1 (stereo not drawn)
Max inhibitory effect (Rattus norvegicus [2]): 0%
Max inhibitory effect (Rattus norvegicus [7]): -3%

CN(C)C1=NC(c2ccc([N+](=O)[O-])cc2)c2ccccc2C1.Cl (stereo not drawn)
Max inhibitory effect (Rattus norvegicus [9]): 30%
Max inhibitory effect (Rattus norvegicus [10]): 33%

CN(C)C1=NC(c2ccccc2Cl)c2ccccc2C1.Cl (stereo not drawn)
inhibition in vivo at 6 mg/kg (Rattus norvegicus [11]): 27%
inhibition in vivo at 50 mg/kg (Rattus norvegicus [1]): 34%
inhibition in vivo at 12.5 mg/kg (Rattus norvegicus [12]): 28%
Max inhibitory effect (Rattus norvegicus [2]): 30%
inhibition in vivo at 25 mg/kg (Rattus norvegicus [4]): 19%
Max inhibitory effect (Rattus norvegicus [13]): 10%
inhibition in vivo at 25 mg/kg (Rattus norvegicus [6]): 19%
Max inhibitory effect (Rattus norvegicus [14]): 36%
inhibition in vivo at 25 mg/kg (Rattus norvegicus [15]): 48%
Max inhibitory effect (Rattus norvegicus [10]): 12%

CN(C)C1=NC(c2ccccc2)c2ccccc2C1.Cl (stereo not drawn)
Max inhibitory effect (Rattus norvegicus [2]): -6%
Max inhibitory effect (Rattus norvegicus [7]): 13%

CN(C)C1=NC(c2ccc(Cl)cc2)c2ccccc2C1.Cl (stereo not drawn)
inhibition in vivo at 6 mg/kg (Rattus norvegicus [11]): 19%
inhibition in vivo at 12.5 mg/kg (Rattus norvegicus [12]): 21%
inhibition in vivo at 25 mg/kg (Rattus norvegicus [16]): 28%
inhibition in vivo at 12.5 mg/kg (Rattus norvegicus [17]): 15%
Max inhibitory effect (Rattus norvegicus [18]): 18%
inhibition in vivo at 25 mg/kg (Rattus norvegicus [6]): 30%
Max inhibitory effect (Rattus norvegicus [9]): 44%
Max inhibitory effect (Rattus norvegicus [19]): 30%
Max inhibitory effect (Rattus norvegicus [10]): 80%

CN(C)C1=NC(c2cccc(Cl)c2)c2ccccc2C1.Cl (stereo not drawn)
inhibition in vivo at 6 mg/kg (Rattus norvegicus [11]): 41%
Max inhibitory effect (Rattus norvegicus [20]): 29%
inhibition in vivo at 50 mg/kg (Rattus norvegicus [1]): 42%
inhibition in vivo at 5 mg/kg (Rattus norvegicus [21]): 8%
inhibition in vivo at 12.5 mg/kg (Rattus norvegicus [12]): 41%
Max inhibitory effect (Rattus norvegicus [22]): 32%
Max inhibitory effect (Rattus norvegicus [2]): 84%
inhibition in vivo at 25 mg/kg (Rattus norvegicus [4]): 29%
inhibition in vivo at 6.25 mg/kg (Rattus norvegicus [23]): 31%
inhibition in vivo at 3 mg/kg (Rattus norvegicus [24]): 36%
Max inhibitory effect (Rattus norvegicus [7]): 53%
inhibition in vivo at 12.5 mg/kg (Rattus norvegicus [25]): 30%
inhibition in vivo at 10 mg/kg (Rattus norvegicus [8]): 35%

Cl.Clc1ccc(C2N=C(NCc3ccccc3)Cc3ccccc32)cc1 (stereo not drawn)
Max inhibitory effect (Rattus norvegicus [2]): 10%
Max inhibitory effect (Rattus norvegicus [7]): -7%

CN(C)C1=NC(c2ccc(Cl)cc2)c2cc(Cl)ccc2C1.Cl (stereo not drawn)
Max inhibitory effect (Rattus norvegicus [2]): 86%
Max inhibitory effect (Rattus norvegicus [26]): 34%
Max inhibitory effect (Rattus norvegicus [7]): 54%
Max inhibitory effect (Rattus norvegicus [27]): 36%

COc1ccc2c(c1)CC(N(C)C)=NC2c1ccc(Cl)cc1.Cl (stereo not drawn)
Max inhibitory effect (Rattus norvegicus [2]): 0%
Max inhibitory effect (Rattus norvegicus [7]): 11%

CN(C)C1=NC(c2ccc(N)cc2)c2ccccc2C1.Cl (stereo not drawn)
Max inhibitory effect (Rattus norvegicus [2]): 6%
Max inhibitory effect (Rattus norvegicus [7]): 9%

CN(C)C1=NC(c2ccc(Cl)cc2Cl)c2ccccc2C1.Cl (stereo not drawn)
Max inhibitory effect (Rattus norvegicus [9]): 15%
Max inhibitory effect (Rattus norvegicus [10]): 44%

Br.CN(C)C1=NC(c2ccc(Cl)cc2)c2ccc(O)cc2C1 (stereo not drawn)
inhibition in vivo at 50 mg/kg (Rattus norvegicus [1]): 18%
Max inhibitory effect (Rattus norvegicus [28]): 5%
Max inhibitory effect (Rattus norvegicus [29]): 16%
Max inhibitory effect (Rattus norvegicus [30]): 44%
inhibition in vivo at 25 mg/kg (Rattus norvegicus [15]): 21%
Max inhibitory effect (Rattus norvegicus [31]): 46%

CN(C)C1=NC(c2ccc(Cl)cc2)c2ccccc2C1 (stereo not drawn)
Max inhibitory effect (Rattus norvegicus [2]): -1%
Max inhibitory effect (Rattus norvegicus [7]): 29%
